Measurements taken from PMC10644720 (Frontiers in Pharmacology, 2023).
Where two headings read alike, the source gives them in different places.

How the values were obtained:
thrombin = tested on: thrombin; parameters: method as in Choi et al. (2015); details: ref Choi et al. (2015); cited from earlier work
NOXs = experiment: NADPH oxidase (NOX) activity assay in platelet lysate; format: cell-based, human; details: convulxin (5 ng/mL)- and collagen (10 μg/mL)-induced; VAS2870 10 μM
Experimental: MDA, SOD, GPx, and NADPH oxidase activity were measured as previously described ([Krotz et al., 2002]; [Paul et al., 2019]; [Pan et al., 2021]). After incubation and activation, the reaction was stopped by adding 10 mM EGTA. The platelets were pelleted by centrifugation at 20,000 × g for 10 min at 4°C and resuspended in Tyrode’s buffer with 0.1% phosphatase and protease inhibitors (Cat No. 04906837001, Roche Applied Science, Penzberg, Germany; Cat No. P-8340, Sigma, St. Louis, MO, United States). The platelets were disrupted by passing them 10 times through a 29-gauge needle, followed by centrifugation at 2000 × g for 10 min at 4°C to separate the supernatant and precipitate. The detection of MDA, SOD, and GPx in the supernatant was performed according to the kit’s instructions for SOD (Cat No. BC0170, Solarbio Life Science, Beijing, China), MDA (Cat No. S0131S, Beyotime Institute of Biotechnology, Shanghai, China) and GPx (Cat No. S0056, Beyotime Institute of Biotechnology, Shanghai, China). In order to determine NADPH oxidase (NOX) activity, platelet lysate (12.5 μg) was incubated with 10 µM lucigenin and 0.5 mM NADPH at 37°C in the dark. The absorbance values were detected at 450 nm using a spectrophotometer Multiskan FC (ThermoFisher Scientific Inc., Waltham, MA, United States). Protein content was determined by the Bradford method.

GPVI signaling = experiment: Western blot of ITAM and MAPK signaling molecules; format: cell-based, human; details: convulxin-induced
Experimental: A lysis buffer (5x, PBS, PH7.4, comprising 2.5% sodium dodecyl sulfate [SDS], 5% deoxycholate, 5% vol/vol Triton X-100, phosphatase and proteinase inhibitors cocktails) was used to lyse the cells on ice for 30 min. The platelet lysate was centrifuged at 12,000 rpm for 10 min at 4°C. The supernatant was added to 5× protein loading buffer and boiled. The proteins were separated by 10% SDS-PAGE gels and transferred to membranes. The PVDF membranes were blocked in EveryBlot Blocking buffer (Cat No. 12010020; Bio-Rad, Hercules, CA, United States) for 10 min. […] The intensity of the target bands was assessed by ImageJ software.

human washed platelets [1] = experiment: Platelet ROS release assay (DCFH-DA); format: cell-based; details: for IC50: Homo sapiens, Platelet; for effect on platelet ROS release: luteolin 25 μM, BAY61-3606 63 nM
Experimental: The assay was performed as previously reported with minor modifications ([Arthur et al., 2012]; [Ye et al., 2020]). Briefly, WPs (500 × 10^9/L) were labeled with 5 μM Fluo-3AM (Cat No. IF0150; Solarbio) or 10 μM DCFH-DA (Cat No. D6883; Sigma, St. Louis, MO, United States) at 37°C for 30 min protected from light. […] In addition, 1 mM CaCl2 and collagen or convulxin were added to start the reaction. […] A ROS probe via a fluorescent enzyme marker was added. O2 ^− and H2O2 were measured using 2 μM Amplex Red (Cat No. ST010; Beyotime Institute of Biotechnology, Shanghai, China) or 2 μM Dihydroethidium (DHE, Cat No. S0063; Beyotime Institute of Biotechnology, Shanghai, China). O2 ^− and H2O2 were analyzed using a Fluoroskan Ascent fluorometer (Thermo Fisher, Waltham, Massachusetts, United States).

human washed platelets [2] = experiment: Platelet-fibrinogen spreading assay; format: cell-based; details: 25 μg/mL fibrinogen-coated slides
Experimental: As previously reported ([Banfi et al., 2022]), 50 μg/mL collagen and 25 μg/mL fibrinogen (Cat No. F3879-100 MG; Sigma-Aldrich, St. Louis, MO, United States) were used to coat coverslips overnight at 4°C. […] The coated slides were washed three times with PBS and blocked with 1% BSA (prepared in PBS) for 1 h at room temperature. The blocking solution was removed, and WPs were added for adhesion experiments. The WPs were allowed to adhere to the slides for 15–60 min at 37°C. The unadhered platelets were removed by PBS. The platelets were fixed with 2% paraformaldehyde solution for 15 min, broken using 1% Triton-100 for 5 min, and stained with phalloidin (1:1,000, Cat No.17466-45-4, Sigma-Aldrich) for 30 min away from light at room temperature. The platelet morphology was observed using an Olympus ix73 microscope (Olympus Corp., Shinjuku, Japan) and photographed. The number of platelet adhesions and spreading area were analyzed and calculated using ImageJ software.

For `O=c1cc(-c2ccc(O)c(O)c2)oc2cc(O)cc(O)c12` [Luteolin], the thrombin activity (thrombin) is given as “effectively inhibits”, the NOXs activity (NOXs) is given as “significantly decreased” and the “phosphorylation of MAPK and ITAM” value (GPVI signaling; Erk 1/2, SAPK/JNK, p38 MAPK) is given as “significant inhibitory effect”. For the same molecule, the “phosphorylation of Src, Syk, PLCγ2, Akt and GSK-3β” value (GPVI signaling; non-aggregating conditions) was “inhibited”, the IC50 (human washed platelets [1]; read-out: IC50, inhibition of ROS release, convulxin (5 ng/mL)-induced) was 3510 nM and the IC50 (human washed platelets [1]; collagen (10 μg/mL)-induced, read-out: IC50, inhibition of ROS release) was 2060 nM. The “effect on platelet ROS release” value (human washed platelets [1]; collagen (10 μg/mL)-induced) was “decreasing levels”, the “effect on platelet ROS release” value (human washed platelets [1]; convulxin (5 ng/mL)-induced) was “decreased” and the “platelet spreading on fibrinogen” value (human washed platelets [2]) was “inhibited”.
